From ChEMBL document CHEMBL1130625, “Synthesis and antibacterial activity of novel 7-(3-substituted-3 or 4-trifluoromethyl-1-pyrrolidinyl)-8-methoxyfluoroquinolones” (1998)
Converted amounts (≈) assume the structure as drawn.

How the values were obtained:
[1] = test system: Klebsiella pneumoniae; assay: Compound was tested for antibacterial activity against gram negative Klebsiella pneumoniae KC-1; format: functional; conditions: Klebsiella pneumoniae; read-out: MIC
[2] = test system: Escherichia coli; assay: Compound was tested for antibacterial activity against gram negative Escherichia coli CSH2/RE45; format: functional; conditions: Escherichia coli; read-out: MIC
[3] = test system: Pseudomonas aeruginosa; assay: Compound was tested for antibacterial activity against gram negative Pseudomonas aeruginosa K-13; format: functional; conditions: Pseudomonas aeruginosa; read-out: MIC
[4] = test system: Serratia marcescens; assay: Compound was tested for antibacterial activity against gram negative Serratia marcescens No.16-2; format: functional; conditions: Serratia marcescens; read-out: MIC
[5] = test system: Klebsiella oxytoca; assay: Compound was tested for antibacterial activity against gram negative Klebsiella oxytoca GN 10650; format: functional; conditions: Klebsiella oxytoca; read-out: MIC
[6] = test system: Streptococcus pyogenes; assay: Compound was tested for antibacterial activity against gram positive Streptococcus pyogenes cook; conditions: Streptococcus pyogenes; read-out: MIC
[7] = test system: Pseudomonas aeruginosa; assay: Compound was tested for antibacterial activity against gram negative Pseudomonas aeruginosa AK109; format: functional; conditions: Pseudomonas aeruginosa; read-out: MIC
[8] = test system: Proteus vulgaris; assay: Compound was tested for antibacterial activity against gram negative Proteus vulgaris KS-134; format: functional; conditions: Proteus vulgaris; read-out: MIC
[9] = test system: Acinetobacter calcoaceticus; assay: Compound was tested for antibacterial activity against gram negative Acinetobacter calcoaceticus No.4; format: functional; conditions: Acinetobacter calcoaceticus; read-out: MIC
[10] = test system: Proteus vulgaris; assay: Compound was tested for antibacterial activity against gram negative Proteus vulgaris No.33; format: functional; conditions: Proteus vulgaris; read-out: MIC
[11] = test system: Enterococcus faecalis; assay: Compound was tested for antibacterial activity against gram positive Enterococcus faecalis 1373; format: functional; conditions: Enterococcus faecalis; read-out: MIC
[12] = test system: Staphylococcus aureus; assay: Compound was tested for antibacterial activity against gram positive Staphylococcus aureus JS-1; format: functional
[13] = test system: Klebsiella pneumoniae; assay: Compound was tested for antibacterial activity against gram negative Klebsiella pneumoniae No.42; format: functional; conditions: Klebsiella pneumoniae; read-out: MIC
[14] = test system: Staphylococcus aureus; assay: Compound was tested for antibacterial activity against gram positive Staphylococcus aureus FDA 209P JC-1; format: functional; conditions: Staphylococcus aureus; read-out: MIC
[15] = test system: Pseudomonas aeruginosa; assay: Compound was tested for antibacterial activity against gram negative Pseudomonas aeruginosa KP-254; format: functional; conditions: Pseudomonas aeruginosa; read-out: MIC
[16] = test system: Staphylococcus aureus; assay: Compound was tested for antibacterial activity against gram positive Staphylococcus aureus KP-90-3; format: functional; conditions: Staphylococcus aureus; read-out: MIC
[17] = test system: Proteus mirabilis; assay: Compound was tested for antibacterial activity against gram negative Proteus mirabilis JY-10; format: functional; conditions: Proteus mirabilis; read-out: MIC
[18] = test system: Citrobacter freundii; assay: Compound was tested for antibacterial activity against gram negative Citrobacter freundii KP-29; format: functional; conditions: Citrobacter freundii; read-out: MIC
[19] = test system: Citrobacter freundii; assay: Compound was tested for antibacterial activity against gram negative Citrobacter freundii No.7; format: functional; conditions: Citrobacter freundii; read-out: MIC
[20] = test system: Escherichia coli; assay: Compound was tested for antibacterial activity against gram negative Escherichia coli ML4707; format: functional; conditions: Escherichia coli; read-out: MIC
[21] = test system: Burkholderia cepacia; assay: Compound was tested for antibacterial activity against gram negative Burkholderia cepacia 23; format: functional; conditions: Burkholderia cepacia; read-out: MIC
[22] = test system: Escherichia coli; assay: Compound was tested for antibacterial activity against gram negative Escherichia coli CSH2/RK1; format: functional; conditions: Escherichia coli; read-out: MIC
[23] = test system: Escherichia coli; assay: Compound was tested for antibacterial activity against gram negative Escherichia coli NIHJ JC-2; format: functional
[24] = test system: Pseudomonas aeruginosa; assay: Compound was tested for antibacterial activity against gram negative Pseudomonas aeruginosa PAO1; format: functional; conditions: Pseudomonas aeruginosa; read-out: MIC
[25] = test system: Staphylococcus aureus; assay: Compound was tested for antibacterial activity against gram positive Staphylococcus aureus smith; format: functional
[26] = test system: Enterobacter cloacae; assay: Compound was tested for antibacterial activity against gram negative Enterobacter cloacae Nek39; format: functional; conditions: Enterobacter cloacae; read-out: MIC
[27] = Staphylococcus aureus, read-out: MIC
[28] = Escherichia coli, read-out: MIC

Row | SMILES | MIC [1] [µg/mL] | MIC [2] [µg/mL] | MIC [3] [µg/mL] | MIC [4] [µg/mL] | MIC [5] [µg/mL] | MIC [6] [µg/mL] | MIC [7] [µg/mL] | MIC [8] [µg/mL] | MIC [9] [µg/mL] | MIC [10] [µg/mL] | MIC [11] [µg/mL] | MIC [13] [µg/mL] | MIC [14] [µg/mL] | MIC [15] [µg/mL] | MIC [16] [µg/mL] | MIC [17] [µg/mL] | MIC [18] [µg/mL] | MIC [19] [µg/mL] | MIC [20] [µg/mL] | MIC [21] [µg/mL] | further results
1 | COc1c(N2C[C@@H](CN)[C@H](C(F)(F)F)C2)c(F)cc2c(=O)c(C(=O)O)cn(C3CC3)c12.Cl (racemic) | 0.05 | 0.78 | 12.5 | 0.39 | 0.1 | 0.025 | 1.56 | 50 | 0.1 | 0.1 | 0.05 | 0.2 | 0.025 | 100 | 0.39 | 0.1 | 25 | 0.78 | 0.05 | 1.56 | MIC [12]: 0.013 µg/mL; MIC [22]: 0.78 µg/mL; MIC [23]: 0.1 µg/mL; MIC [24]: 1.56 µg/mL; MIC [25]: ≤ 0.006 µg/mL; MIC [26]: 0.39 µg/mL
2 | CC1COc2c(N3CCN(C)CC3)c(F)cc3c(=O)c(C(=O)O)cn1c23 (stereo not drawn) [OFLOXACIN] | 0.05 (≈ 0.138 µM) | 0.78 (≈ 2.16 µM) | 12.5 (≈ 34.6 µM) | 0.78 (≈ 2.16 µM) | 0.1 (≈ 0.277 µM) | 0.78 (≈ 2.16 µM) | 1.56 (≈ 4.32 µM) | 50 (≈ 138 µM) | 0.78 (≈ 2.16 µM) | 0.05 (≈ 0.138 µM) | 1.56 (≈ 4.32 µM) | 0.2 (≈ 0.553 µM) | 0.39 (≈ 1.08 µM) | > 100 | 25 (≈ 69.2 µM) | 0.05 (≈ 0.138 µM) | 50 (≈ 138 µM) | 0.39 (≈ 1.08 µM) | 0.025 (≈ 0.0692 µM) | 3.13 (≈ 8.66 µM) | MIC [12, 27]: 0.39 µg/mL (≈ 1.08 µM); MIC [22]: 0.78 µg/mL (≈ 2.16 µM); MIC [23, 28]: 0.1 µg/mL (≈ 0.277 µM); MIC [24]: 1.56 µg/mL (≈ 4.32 µM); MIC [25]: 0.2 µg/mL (≈ 0.553 µM); MIC [26]: 0.39 µg/mL (≈ 1.08 µM)
3 | NC1CCN(c2nc3c(cc2F)c(=O)c(C(=O)O)cn3-c2ccc(F)cc2F)C1 (stereo not drawn) [TOSUFLOXACIN] | 0.025 (≈ 0.0618 µM) | 0.39 (≈ 0.965 µM) | 6.25 (≈ 15.5 µM) | 0.39 (≈ 0.965 µM) | 0.05 (≈ 0.124 µM) | 0.1 (≈ 0.247 µM) | 0.39 (≈ 0.965 µM) | > 12.5 | 0.025 (≈ 0.0618 µM) | 0.05 (≈ 0.124 µM) | 0.2 (≈ 0.495 µM) | 0.025 (≈ 0.0618 µM) | 0.05 (≈ 0.124 µM) | > 12.5 | 12.5 (≈ 30.9 µM) | 0.05 (≈ 0.124 µM) | > 12.5 | 0.39 (≈ 0.965 µM) | 0.013 (≈ 0.0322 µM) | 0.78 (≈ 1.93 µM) | MIC [12, 27]: 0.05 µg/mL (≈ 0.124 µM); MIC [22]: 0.39 µg/mL (≈ 0.965 µM); MIC [23, 28]: 0.05 µg/mL (≈ 0.124 µM); MIC [24]: 0.39 µg/mL (≈ 0.965 µM); MIC [25]: 0.025 µg/mL (≈ 0.0618 µM); MIC [26]: 0.2 µg/mL (≈ 0.495 µM)
